Patent publication US20260200892A1, “CANNABINOID RECEPTOR 2 MODULATORS” (Hoffmann-La Roche Inc., priority 2023, published 2026)

Columns and labels:
[1] = target: T1, human CB2 receptor (hCB2R) (Homo sapiens, UniProt P34972); experiment: TR-FRET hCB2R binding assay; conditions: TR-FRET, membranes of SNAP-tagged human CB2R HEK293-TR cells, 100 μM GppNHp, nonspecific binding with SR144528; read-out: Kd hCB2R
T1 construct: expressed in transfected cells; membranes

[2] = target: T2, CB2 receptor (hCB2R), CHO cell line stably overexpressing CB2 receptor (Homo sapiens, UniProt P34972); experiment: cAMP hCB2R functional assay (HTRF); assay type: cell-based; conditions: CHO cells overexpressing CB2 receptor, forskolin; for Functionality: normalized to Emax of CP55940 (100%)
T2 construct: expressed in transfected cells; host or cells: CHO cell line stably overexpressing CB2 receptor (G418 selection)
Description: cAMP hCB2R Functional Assay
The Homogeneous Time Resolved Fluorescence (HTRF) Assays
The homogeneous time-resolved fluorescence (HTRF) cAMP assay was conducted according to the manufacturer's protocol for the cAMP-Gs Dynamic kit (Cisbio). Briefly, the CHO cell line stably overexpressing CB2 receptor were maintained in Ham's F12 supplemented with 10% FBS, 100 U/ml penicillin and 100 μg/ml streptomycin (Gibco-ThermoFisher) and 400 μg/ml G418 (ThermoFisher). For CB2 compounds test, harvest the cells with Cell Dissociation Buffer and re-suspend the cells in F-12 K at 0.4*10^6 cells/mL, and dispense cells into 384-well low volume plates at 2000 cells/5 μL per well. The cells were stimulated with compounds diluted in Stimulation Buffer (2.5 μL/well) for 15 min at room temperature. And then followed by the addition of 2.5 μL 25 μM forsklin. After 15 mins incubation, reactions were stopped by 5 μL/well cAMP-d2 conjugate working solution followed by 5 μL/well of anti-cAMP cryptate working solution. After incubation for 1 h at room temperature, the plates were read in a PerkinElmer Envision reader for time-resolved fluorescence resonance energy transfer detection at 620 nm and 665 nm.
Quantification and Statistical Analysis
All HTRF ratio data sets of test compounds were normalized to the Emax of CP55940 (100%) and obtained the means±standard error of the mean (SEM) of 2-3 independent experiments performed in technical replicates.

hCB1R = hCB1R (Homo sapiens, UniProt P21554); experiment: hCB1R binding (Kd hCB1R, Table 1)
hCB1R, sequence (P21554 whole entry): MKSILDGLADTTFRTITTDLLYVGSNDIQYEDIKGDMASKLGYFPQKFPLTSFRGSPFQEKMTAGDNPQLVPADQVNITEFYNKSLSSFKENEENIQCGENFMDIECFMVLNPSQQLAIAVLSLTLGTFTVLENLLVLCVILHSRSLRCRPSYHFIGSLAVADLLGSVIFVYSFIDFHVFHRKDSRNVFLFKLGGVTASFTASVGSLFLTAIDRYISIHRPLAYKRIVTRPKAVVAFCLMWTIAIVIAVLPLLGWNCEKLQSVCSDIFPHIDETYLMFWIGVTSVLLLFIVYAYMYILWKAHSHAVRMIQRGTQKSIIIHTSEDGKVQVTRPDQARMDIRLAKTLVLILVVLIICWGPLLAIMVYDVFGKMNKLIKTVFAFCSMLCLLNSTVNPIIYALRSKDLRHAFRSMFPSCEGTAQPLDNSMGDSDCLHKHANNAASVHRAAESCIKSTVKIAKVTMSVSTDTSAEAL

T1 sequence (P34972 whole entry): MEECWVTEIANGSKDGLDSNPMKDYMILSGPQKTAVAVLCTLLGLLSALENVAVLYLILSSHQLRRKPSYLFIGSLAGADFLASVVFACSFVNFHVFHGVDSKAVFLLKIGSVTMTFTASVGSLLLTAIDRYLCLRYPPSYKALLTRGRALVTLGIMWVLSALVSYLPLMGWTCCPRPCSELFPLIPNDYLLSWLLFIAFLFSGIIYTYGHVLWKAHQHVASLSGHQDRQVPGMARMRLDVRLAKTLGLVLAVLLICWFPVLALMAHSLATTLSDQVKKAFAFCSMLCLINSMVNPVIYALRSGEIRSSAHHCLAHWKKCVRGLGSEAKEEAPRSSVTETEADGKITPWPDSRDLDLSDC
T2 sequence (P34972 whole entry): as above

Compound | Kd [1] | EC50 ([2]; means ± SEM of 2-3 independent experiments) | Functionality [2] | Kd (hCB1R)
CCN(CC)c1ccc2cc(/C=C/c3ccc(S(=O)(=O)[O-])c[n+]3CCCCCC(=O)NCC3=C[C@H](c4c(OC)cc(C(C)(C)[C@@H](CCCCCN=[N+]=[N-])c5ccccc5)cc4OC)[C@@H]4C[C@H]3C4(C)C)c(=O)oc2c1 [Example 21, 1-(6-((((1S,4S,5S)-4-(4-((S)-8-azido-2-methyl-3-phenyloctan-2-yl)-2,6-dimethoxyphenyl)-6,6-dimethylbicyclo[3.1.1]hept-2-en-2-yl)methyl)amino)-6-oxohexyl)-6-((E)-2-(7-(diethylamino)-2-oxo-2H-chromen-3-yl)vinyl)pyridin-1-ium-3-sulfonate] | 162 nM | 339 nM | inverse agonist | 
COc1cc(C(C)(C)[C@@H](CCCCCN=[N+]=[N-])c2ccccc2)cc(OC)c1[C@H]1C=C(CNC(=O)CCCCCCNc2ccc([N+](=O)[O-])c3nonc23)[C@H]2C[C@@H]1C2(C)C [Example 23, N-(((1S,4S,5S)-4-(4-((S)-8-azido-2-methyl-3-phenyloctan-2-yl)-2,6-dimethoxyphenyl)-6,6-dimethylbicyclo[3.1.1]hept-2-en-2-yl)methyl)-7-((7-nitrobenzo [c][1,2,5]oxadiazol-4-yl)amino)heptanamide] | 158 nM |  | Antagonist | 
COc1cc(C(C)(C)[C@H](CCCCCN=[N+]=[N-])c2ccccc2)cc(OC)c1[C@H]1C=C(CNC(=O)CCCCCNC(=O)c2ccc3c(c2)C(=O)OC32c3ccc(N(C)C)cc3Oc3cc(N(C)C)ccc32)[C@H]2C[C@@H]1C2(C)C [Example 25, N-(6-((((1S,4S,5S)-4-(4-((R)-8-azido-2-methyl-3-phenyloctan-2-yl)-2,6-dimethoxyphenyl)-6,6-dimethylbicyclo[3.1.1]hept-2-en-2-yl)methyl)amino)-6-oxohexyl)-3′,6′-bis(dimethylamino)-3-oxo-3H-spiro[isobenzofuran-1,9′-xanthene]-5-carboxamide] | 2.78 nM |  |  | 396 nM
COc1cc(C(C)(C)[C@H](CCCCCN=[N+]=[N-])c2ccccc2)cc(OC)c1[C@H]1C=C(CNC(=O)CCCCCNC(=O)c2ccc3c(c2)C2(OC3=O)c3ccc(O)cc3Oc3cc(O)ccc32)[C@H]2C[C@@H]1C2(C)C [Example 26, N-(6-((((1S,4S,5S)-4-(4-((R)-8-azido-2-methyl-3-phenyloctan-2-yl)-2,6-dimethoxyphenyl)-6,6-dimethylbicyclo[3.1.1]hept-2-en-2-yl)methyl)amino)-6-oxohexyl)-3′,6′-dihydroxy-3-oxo-3H-spiro[isobenzofuran-1,9′-xanthene]-6-carboxamide] | 30.3 nM |  |  | 1280 nM
COc1cc(C(C)(C)[C@H](CCCCCN=[N+]=[N-])c2ccccc2)cc(OC)c1[C@H]1C=C(CNC(=O)CCCCCNC(=O)CCCCC[N+]2=C(/C=C/C=C/C=C3/N(CCCS(=O)(=O)O)c4ccc(S(=O)(=O)O)cc4C3(C)C)C(C)(CCCCS(=O)(=O)O)c3cc(S(=O)(=O)[O-])ccc32)[C@H]2C[C@@H]1C2(C)C (stereo partly drawn) [Example 27, 1-(6-((6-((((1S,4S,5S)-4-(4-((R)-8-azido-2-methyl-3-phenyloctan-2-yl)-2,6-dimethoxyphenyl)-6,6-dimethylbicyclo[3.1.1]hept-2-en-2-yl)methyl)amino)-6-oxohexyl)amino)-6-oxohexyl)-2-((1E,3E)-5-((E)-3,3-dimethyl-5-sulfo-1-(3-sulfopropyl)indolin-2-ylidene)penta-1,3-dien-1-yl)-3-methyl-3-(4-sulfobutyl)-3H-indol-1-ium-5-sulfonate] | 25.9 nM |  |  | 7050 nM
